Results on 11 compounds are retold here after US8586550B2, “Thiazole derivatives as SGLT2 inhibitors and pharmaceutical composition comprising same” (Green Cross Corporation, priority 2010, dated 2013).

The assay concerns the target T1, Human SGLT2 (hSGLT2) (Homo sapiens, UniProt P31639).
T1 construct: expressed in transfected cells
T1 sequence (P31639 1-672): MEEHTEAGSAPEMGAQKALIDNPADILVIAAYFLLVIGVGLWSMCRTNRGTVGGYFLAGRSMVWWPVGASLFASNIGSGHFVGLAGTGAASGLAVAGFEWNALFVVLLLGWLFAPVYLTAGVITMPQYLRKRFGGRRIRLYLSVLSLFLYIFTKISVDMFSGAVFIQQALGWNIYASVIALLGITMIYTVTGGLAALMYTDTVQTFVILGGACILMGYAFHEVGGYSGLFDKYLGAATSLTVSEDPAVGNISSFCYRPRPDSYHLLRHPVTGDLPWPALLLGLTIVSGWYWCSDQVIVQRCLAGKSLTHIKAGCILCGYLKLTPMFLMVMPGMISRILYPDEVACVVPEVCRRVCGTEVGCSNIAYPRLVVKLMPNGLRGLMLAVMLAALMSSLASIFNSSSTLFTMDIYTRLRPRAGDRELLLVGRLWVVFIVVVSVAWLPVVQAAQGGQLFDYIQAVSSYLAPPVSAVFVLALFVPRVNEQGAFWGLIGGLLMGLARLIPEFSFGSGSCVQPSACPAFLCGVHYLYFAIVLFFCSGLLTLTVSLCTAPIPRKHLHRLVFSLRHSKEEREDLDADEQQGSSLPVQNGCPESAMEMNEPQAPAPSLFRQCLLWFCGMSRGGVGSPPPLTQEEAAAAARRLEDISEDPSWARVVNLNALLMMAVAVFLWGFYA
Kind of assay: Sodium-dependent glucose transport (14C-AMG uptake) assay in CHO cells stably expressing hSGLT2. Type of assay: cell-based. As to conditions: CHO cells expressing hSGLT2, 14C-AMG uptake, 37° C. for 2 h; single determinations; read-out: hSGLT2 Inhibitory Activity IC50. The source says:
Cloning and Cell Line Construction for Human SGLT2
Human SGLT2 (hSGLT2) gene was amplified by PCR from cDNA-Human Adult Normal Tissue Kidney (Invitrogen). The hSGLT2 sequence was cloned into pcDNA3.1(+) for mammalian expression and were stably transfected into chinese hamster ovary (CHO) cells. SGLT2-expressing clones were selected based on resistance to G418 antibiotic (Geneticin) and activity in the ^14C-α-methyl-D-glucopyranoside (^14C-AMG) uptake assay.
Inhibitory Effects on Human SGLT2 Activities
For sodium-dependent glucose transport assay, cells expressing hSGLT2 were seeded into a 96-well culture plate at a density of 5×10^4 cells/well in RPMI medium 1640 containing 10% fetal bovine serum. The cells were used 1 day after plating. They were incubated in pretreatment buffer (10 mM HEPES, 5 mM Tris, 140 mM choline chloride, 2 mM KCl, 1 mM CaCl2, and 1 mM MgCl2, pH 7.4) at 37° C. for 10 min. They were then incubated in uptake buffer (10 mM HEPES, 5 mM Tris, 140 mM NaCl, 2 mM KCl, 1 mM CaCl2, 1 mM MgCl2, and 1 mM ^14C-nonlabeled AMG, pH 7.4) containing ^14C-labeled (8 μM) and inhibitor or dimethylsulfoxide (DMSO) vehicle at 37° C. for 2 h. Cells were washed twice with washing buffer (pretreatment buffer containing 10 mM AMG at room temperature) and then the radioactivity was measured using a liquid scintillation counter. IC50 was determined by nonlinear regression analysis using GraphPad PRISM [Katsuno, K. et al. J. Pharmacol. Exp. Ther. 2007, 320, 323-330; Han, S. et al. Deabetes, 2008, 57, 1723-1729].
As a reminder, the IC50 is the concentration at which inhibition is half-maximal. In the case of `CCCc1cnc(Cc2cc([C@@H]3O[C@H](CO)[C@@H](O)[C@H](O)[C@H]3O)c(Cl)cc2Cl)s1` [Example 65, (2S,3R,4R,5S,6R)-2-(2,4-Dichloro-5-((5-propylthiazol-2-yl)methyl)phenyl)-6-(hydroxymethyl)tetrahydro-2H-pyran-3,4,5-triol], the concentration for half-maximal inhibition (IC50) stood at 43.7 nM. In the case of `OC[C@H]1O[C@@H](c2ccc(Cl)c(Cc3ncc(-c4nncs4)s3)c2)[C@H](O)[C@@H](O)[C@@H]1O` [Example 107, (2S,3R,4R,5S,6R)-2-(3-((5-(1,3,4-Thiadiazol-2-yl)thiazol-2-yl)methyl)-4-chlorophenyl)-6-(hydroxymethyl)-tetrahydro-2H-pyran-3,4,5-triol] it was 14 nM.

For the compound `COc1c(Cc2ncc(C3CCCC3)s2)cc([C@@H]2O[C@H](CO)[C@@H](O)[C@H](O)[C@H]2O)c2ccccc12` [Example 101, (2S,3R,4R,5S,6R)-2-(3-((5-Cyclopentylthiazol-2-yl)methyl)-4-methoxynaphthalen-1-yl)-6-(hydroxymethyl)-tetrahydro-2H-pyran-3,4,5-triol], the IC50 worked out at 26.8 nM. In the case of `CCCCCCc1cnc(Cc2cc([C@@H]3O[C@H](CO)[C@@H](O)[C@H](O)[C@H]3O)c(Cl)cc2Cl)s1` [Example 67, (2S,3R,4R,5S,6R)-2-(2,4-Dichloro-5-((5-hexylthiazol-2-yl)methyl)phenyl)-6-(hydroxymethyl)tetrahydro-2H-pyran-3,4,5-triol] it was 38.7 nM. Turning to `CCc1cnc(Cc2cc([C@@H]3O[C@H](CO)[C@@H](O)[C@H](O)[C@H]3O)ccc2Cl)s1` [Example 12, (2S,3R,4R,5S,6R)-2-(4-chloro-3-((5-ethylthiazol-2-yl)methyl)phenyl)-6-(hydroxymethyl)-tetrahydro-2H-pyran-3,4,5-triol], the IC50 came to 16.7 nM. In the case of `C=CCOc1cc(Cl)c(Cc2ncc(-c3ccccc3)s2)cc1[C@@H]1O[C@H](CO)[C@@H](O)[C@H](O)[C@H]1O` [Example 87, (2S,3R,4R,5S,6R)-2-(2-(Allyloxy)-4-chloro-5-((5-phenylthiazol-2-yl)methyl)phenyl)-6-(hydroxymethyl)tetrahydro-2H-pyran-3,4,5-triol], the IC50 was 3.38 nM.

Take `OC[C@H]1O[C@@H](c2ccc(Cl)c(Cc3ncc(-c4ccco4)s3)c2)[C@H](O)[C@@H](O)[C@@H]1O` [Example 5, (2S,3R,4R,5S,6R)-2-(4-Chloro-3-((5-(furan-2-yl)thiazol-2-yl)methyl)phenyl)-6-(hydroxymethyl)-tetrahydro-2H-pyran-3,4,5-triol]: the IC50 came to 1.75 nM. In the case of `OC[C@H]1O[C@@H](c2cc(Cc3ncc(-c4ccsc4)s3)c(Cl)cc2F)[C@H](O)[C@@H](O)[C@@H]1O` [Example 56, (2S,3R,4R,5S,6R)-2-(4-Chloro-2-fluoro-5-((5-(thiophen-3-yl)thiazol-2-yl)methyl)phenyl)-6-(hydroxymethyl)tetrahydro-2H-pyran-3,4,5-triol] it was 2.12 nM. On to `CCOc1cnc(Cc2cc([C@@H]3O[C@H](CO)[C@@H](O)[C@H](O)[C@H]3O)ccc2Cl)s1` [Example 21, (2S,3R,4R,5S,6R)-2-(4-Chloro-3-((5-ethoxythiazol-2-yl)methyl)phenyl)-6-(hydroxymethyl)-tetrahydro-2H-pyran-3,4,5-triol], for which the IC50 turned out to be 18.8 nM. `OC[C@H]1O[C@@H](n2cc(Cc3ncc(-c4cccs4)s3)c3ccccc32)[C@H](O)[C@@H](O)[C@@H]1O` [Example 131, (2R,3S,4S,5R,6R)-2-(Hydroxymethyl)-6-(3-((5-(thiophen-2-yl)thiazol-2-yl)methyl)-1H-indol-1-yl)tetrahydro-2H-pyran-3,4,5-triol]: the IC50 came out at 13.8 nM.

For `Cc1ccc([C@@H]2O[C@H](CO)[C@@H](O)[C@H](O)[C@H]2O)cc1Cc1ncc(Cc2ccccc2)s1` [Example 39, (2S,3R,4R,5S,6R)-2-(3-((5-Benzylthiazol-2-yl)methyl)-4-methylphenyl)-6-(hydroxymethyl)tetrahydro-2H-pyran-3,4,5-triol], the IC50 worked out at 176 nM.
